How the values were obtained:
Experiment in all cases: Test B pre-/postemergence
Format in all cases: in vivo
Parameters in all cases: key: 0 is no effect; 10 is complete control
[1] = tested on: blackgrass (Alopecurus myosuroides); details: for Blackgrass plant response rating: Preemergence
Method in brief: (§1)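 Compounds in a surfactant-containing, non-phytotoxic solvent blend are applied to freshly planted seed (preemergence) and, concurrently, to seedlings of 2 to 18 cm at 1–4 leaves (postemergence). Plants stay in the greenhouse twelve to sixteen days and are then scored visually from 0 (no effect) to 10 (complete control).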

[2] = tested on: broadleaf signalgrass (Brachiaria decumbens); details: for B. signalgrass plant response rating: Preemergence
Method in brief: as §1

[3] = tested on: cocklebur (Xanthium strumarium); details: for Cocklebur plant response rating: Preemergence
Method in brief: as §1

[4] = tested on: corn (Zea mays); details: for Corn plant response rating: Preemergence
Method in brief: as §1

[5] = tested on: crabgrass (Digitaria sanguinalis); details: for Crabgrass plant response rating: Preemergence
Method in brief: as §1

[6] = tested on: giant foxtail (Setaria faberii)
Method in brief: as §1

[7] = tested on: momingglory (Ipomoea hederacea)
Method in brief: as §1

[8] = tested on: pigweed (Amaranthus retroflexus)
Method in brief: as §1

[9] = tested on: purple nutsedge (Cyperus rotundus)
Method in brief: as §1

[10] = tested on: soybean (Glycine max)
Method in brief: as §1

[11] = tested on: sugar beet (Beta vulgaris)
Method in brief: as §1

[12] = tested on: velvetleaf (Abutilon theophrasti)
Method in brief: as §1

[13] = tested on: wheat (Triticum aestivum)
Method in brief: as §1

[14] = tested on: wild oat (Avena fatua)
Method in brief: as §1

[15] = Rate 250 g/ha, Postemergence (so in the source)
[16] = Rate 250 g/ha, Postemergence as printed in head r139 (second section for compounds 26-50)

CCc1cnc(-n2ccc(C(F)(F)F)n2)nc1Cc1cccc(C(F)(F)F)c1 [Compound 46]
Plant response rating, Blackgrass ([1]; Rate 62 g/ha, Postemergence): 4
Blackgrass plant response rating ([1]; Rate 62 g/ha): 8
Plant response rating, Blackgrass ([1]; Rate 125 g/ha, Postemergence): 5
Blackgrass plant response rating ([1]; Rate 125 g/ha): 8
Plant response rating, Blackgrass ([1]; Rate 250 g/ha, Postemergence): 6
Plant response rating, Blackgrass [1, 15]: 10
Plant response rating, B. signalgrass ([2]; Rate 62 g/ha, Postemergence): 3
B. signalgrass plant response rating ([2]; Rate 62 g/ha): 9
Plant response rating, B. signalgrass ([2]; Rate 125 g/ha, Postemergence): 4
B. signalgrass plant response rating ([2]; Rate 125 g/ha): 9
Plant response rating, B. signalgrass ([2]; Rate 250 g/ha, Postemergence): 5
Plant response rating, B. signalgrass [2, 16]: 9
Plant response rating, Cocklebur ([3]; Rate 62 g/ha, Postemergence): 8
Cocklebur plant response rating ([3]; Rate 62 g/ha): 10
Plant response rating, Cocklebur ([3]; Rate 125 g/ha, Postemergence): 9
Plant response rating, Cocklebur ([3]; Rate 250 g/ha, Postemergence): 9
Plant response rating, Corn ([4]; Rate 62 g/ha, Postemergence): 2
Corn plant response rating ([4]; Rate 62 g/ha): 0
Plant response rating, Corn ([4]; Rate 125 g/ha, Postemergence): 2
Corn plant response rating ([4]; Rate 125 g/ha): 1
Plant response rating, Corn ([4]; Rate 250 g/ha, Postemergence): 3
Plant response rating, Corn [4, 15]: 3
Plant response rating, Crabgrass ([5]; Rate 62 g/ha, Postemergence): 6
Crabgrass plant response rating ([5]; Rate 62 g/ha): 9
Plant response rating, Crabgrass ([5]; Rate 125 g/ha, Postemergence): 6
Crabgrass plant response rating ([5]; Rate 125 g/ha): 9
Plant response rating, Crabgrass ([5]; Rate 250 g/ha, Postemergence): 8
Plant response rating, Crabgrass [5, 15]: 10
Plant response rating, Giant foxtail ([6]; Rate 62 g/ha, Postemergence): 3
Giant foxtail plant response rating ([6]; Rate 62 g/ha, Preemergence): 9
Giant foxtail plant response rating ([6]; Rate 125 g/ha, Postemergence): 4
Giant foxtail plant response rating ([6]; Rate 125 g/ha, Preemergence): 9
Plant response rating, Giant foxtail ([6]; Rate 250 g/ha, Postemergence): 7
Plant response rating, Giant foxtail [6, 15]: 10
Plant response rating, Morningglory ([7]; Rate 62 g/ha, Postemergence): 9
Morningglory plant response rating ([7]; Rate 62 g/ha, Preemergence): 10
Morningglory plant response rating ([7]; Rate 125 g/ha, Postemergence): 10
Morningglory plant response rating ([7]; Rate 125 g/ha, Preemergence): 10
Plant response rating, Morningglory ([7]; Rate 250 g/ha, Postemergence): 10
Plant response rating, Morningglory [7, 15]: 10
Plant response rating, Redroot pigweed ([8]; Rate 62 g/ha, Postemergence): 9
Redroot pigweed plant response rating ([8]; Rate 62 g/ha, Preemergence): 10
Redroot pigweed plant response rating ([8]; Rate 125 g/ha, Postemergence): 9
Redroot pigweed plant response rating ([8]; Rate 125 g/ha, Preemergence): 10
Plant response rating, Redroot pigweed ([8]; Rate 250 g/ha, Postemergence): 10
Plant response rating, Redroot pigweed [8, 15]: 10
Plant response rating, Nutsedge ([9]; Rate 62 g/ha, Postemergence): 2
Nutsedge plant response rating ([9]; Rate 125 g/ha, Preemergence): 0
Plant response rating, Nutsedge [9, 15]: 0
Plant response rating, Soybean ([10]; Rate 62 g/ha, Postemergence): 8
Soybean plant response rating ([10]; Rate 62 g/ha, Preemergence): 1
Soybean plant response rating ([10]; Rate 125 g/ha, Postemergence): 8
Plant response rating, Soybean ([10]; Rate 125 g/ha, Preemergence): 3
Plant response rating, Soybean ([10]; Rate 250 g/ha, Postemergence): 9
Plant response rating, Soybean [10, 15]: 7
Plant response rating, Sugarbeets ([11]; Rate 62 g/ha, Postemergence): 10
Sugarbeets plant response rating ([11]; Rate 62 g/ha, Preemergence): 10
Sugarbeets plant response rating ([11]; Rate 125 g/ha, Postemergence): 10
Plant response rating, Sugarbeets ([11]; Rate 125 g/ha, Preemergence): 10
Plant response rating, Sugarbeets ([11]; Rate 250 g/ha, Postemergence): 10
Plant response rating, Sugarbeets [11, 15]: 10
Plant response rating, Velvetleaf ([12]; Rate 62 g/ha, Postemergence): 9
Velvetleaf plant response rating ([12]; Rate 62 g/ha, Preemergence): 10
Velvetleaf plant response rating ([12]; Rate 125 g/ha, Postemergence): 9
Plant response rating, Velvetleaf ([12]; Rate 125 g/ha, Preemergence): 10
Plant response rating, Velvetleaf ([12]; Rate 250 g/ha, Postemergence): 9
Plant response rating, Velvetleaf [12, 15]: 10
Wheat plant response rating ([13]; Rate 62 g/ha, Postemergence): 3
Wheat plant response rating ([13]; Rate 62 g/ha, Preemergence): 1
Wheat plant response rating ([13]; Rate 125 g/ha, Postemergence): 3
Plant response rating, Wheat ([13]; Rate 125 g/ha, Preemergence): 3
Plant response rating, Wheat ([13]; Rate 250 g/ha, Postemergence): 4
Plant response rating, Wheat [13, 15]: 5
Wild oats plant response rating ([14]; Rate 62 g/ha, Postemergence): 3
Wild oats plant response rating ([14]; Rate 62 g/ha, Preemergence): 6
Wild oats plant response rating ([14]; Rate 125 g/ha, Postemergence): 4
Plant response rating, Wild oats ([14]; Rate 125 g/ha, Preemergence): 8
Plant response rating, Wild oats ([14]; Rate 250 g/ha, Postemergence): 4
Plant response rating, Wild oats [14, 15]: 9

Cc1cnc(-n2ccc(C(F)(F)F)n2)nc1Cc1cccc(OC(F)(F)F)c1 [Compound 42]
Plant response rating, Blackgrass ([1]; Rate 62 g/ha, Postemergence): 6
Blackgrass plant response rating ([1]; Rate 62 g/ha): 6
Plant response rating, Blackgrass ([1]; Rate 125 g/ha, Postemergence): 7
Blackgrass plant response rating ([1]; Rate 125 g/ha): 10
Plant response rating, Blackgrass ([1]; Rate 250 g/ha, Postemergence): 7
Plant response rating, Blackgrass [1, 15]: 10
Plant response rating, B. signalgrass ([2]; Rate 62 g/ha, Postemergence): 6
B. signalgrass plant response rating ([2]; Rate 62 g/ha): 9
Plant response rating, B. signalgrass ([2]; Rate 125 g/ha, Postemergence): 7
B. signalgrass plant response rating ([2]; Rate 125 g/ha): 9
Plant response rating, B. signalgrass ([2]; Rate 250 g/ha, Postemergence): 7
Plant response rating, B. signalgrass [2, 16]: 10
Plant response rating, Cocklebur ([3]; Rate 62 g/ha, Postemergence): 9
Cocklebur plant response rating ([3]; Rate 62 g/ha): 1
Plant response rating, Cocklebur ([3]; Rate 125 g/ha, Postemergence): 9
Cocklebur plant response rating ([3]; Rate 125 g/ha): 3
Plant response rating, Cocklebur ([3]; Rate 250 g/ha, Postemergence): 9
Plant response rating, Cocklebur [3, 15]: 8
Plant response rating, Corn ([4]; Rate 62 g/ha, Postemergence): 3
Corn plant response rating ([4]; Rate 62 g/ha): 0
Plant response rating, Corn ([4]; Rate 125 g/ha, Postemergence): 3
Corn plant response rating ([4]; Rate 125 g/ha): 1
Plant response rating, Corn ([4]; Rate 250 g/ha, Postemergence): 8
Plant response rating, Corn [4, 15]: 2
Plant response rating, Crabgrass ([5]; Rate 62 g/ha, Postemergence): 4
Crabgrass plant response rating ([5]; Rate 62 g/ha): 9
Plant response rating, Crabgrass ([5]; Rate 125 g/ha, Postemergence): 7
Crabgrass plant response rating ([5]; Rate 125 g/ha): 10
Plant response rating, Crabgrass ([5]; Rate 250 g/ha, Postemergence): 8
Plant response rating, Crabgrass [5, 15]: 10
Plant response rating, Giant foxtail ([6]; Rate 62 g/ha, Postemergence): 6
Giant foxtail plant response rating ([6]; Rate 62 g/ha, Preemergence): 10
Giant foxtail plant response rating ([6]; Rate 125 g/ha, Postemergence): 7
Giant foxtail plant response rating ([6]; Rate 125 g/ha, Preemergence): 10
Plant response rating, Giant foxtail ([6]; Rate 250 g/ha, Postemergence): 9
Plant response rating, Giant foxtail [6, 15]: 10
Plant response rating, Morningglory ([7]; Rate 62 g/ha, Postemergence): 8
Morningglory plant response rating ([7]; Rate 62 g/ha, Preemergence): 9
Morningglory plant response rating ([7]; Rate 125 g/ha, Postemergence): 9
Morningglory plant response rating ([7]; Rate 125 g/ha, Preemergence): 10
Plant response rating, Morningglory ([7]; Rate 250 g/ha, Postemergence): 9
Plant response rating, Morningglory [7, 15]: 10
Plant response rating, Redroot pigweed ([8]; Rate 62 g/ha, Postemergence): 9
Redroot pigweed plant response rating ([8]; Rate 62 g/ha, Preemergence): 9
Redroot pigweed plant response rating ([8]; Rate 125 g/ha, Postemergence): 9
Redroot pigweed plant response rating ([8]; Rate 125 g/ha, Preemergence): 10
Plant response rating, Redroot pigweed ([8]; Rate 250 g/ha, Postemergence): 9
Plant response rating, Redroot pigweed [8, 15]: 10
Plant response rating, Nutsedge ([9]; Rate 62 g/ha, Postemergence): 0
Nutsedge plant response rating ([9]; Rate 62 g/ha, Preemergence): 0
Nutsedge plant response rating ([9]; Rate 125 g/ha, Postemergence): 0
Plant response rating, Nutsedge ([9]; Rate 250 g/ha, Postemergence): 2
Plant response rating, Nutsedge [9, 15]: 0
Plant response rating, Soybean ([10]; Rate 62 g/ha, Postemergence): 9
Soybean plant response rating ([10]; Rate 62 g/ha, Preemergence): 2
Soybean plant response rating ([10]; Rate 125 g/ha, Postemergence): 9
Plant response rating, Soybean ([10]; Rate 125 g/ha, Preemergence): 4
Plant response rating, Soybean ([10]; Rate 250 g/ha, Postemergence): 9
Plant response rating, Soybean [10, 15]: 4
Plant response rating, Sugarbeets ([11]; Rate 62 g/ha, Postemergence): 10
Sugarbeets plant response rating ([11]; Rate 62 g/ha, Preemergence): 10
Sugarbeets plant response rating ([11]; Rate 125 g/ha, Postemergence): 10
Plant response rating, Sugarbeets ([11]; Rate 125 g/ha, Preemergence): 10
Plant response rating, Sugarbeets ([11]; Rate 250 g/ha, Postemergence): 10
Plant response rating, Sugarbeets [11, 15]: 10
Plant response rating, Velvetleaf ([12]; Rate 62 g/ha, Postemergence): 8
Velvetleaf plant response rating ([12]; Rate 62 g/ha, Preemergence): 10
Velvetleaf plant response rating ([12]; Rate 125 g/ha, Postemergence): 9
Plant response rating, Velvetleaf ([12]; Rate 125 g/ha, Preemergence): 7
Plant response rating, Velvetleaf ([12]; Rate 250 g/ha, Postemergence): 9
Plant response rating, Velvetleaf [12, 15]: 10
Wheat plant response rating ([13]; Rate 62 g/ha, Postemergence): 2
Wheat plant response rating ([13]; Rate 62 g/ha, Preemergence): 1
Wheat plant response rating ([13]; Rate 125 g/ha, Postemergence): 3
Plant response rating, Wheat ([13]; Rate 125 g/ha, Preemergence): 2
Plant response rating, Wheat ([13]; Rate 250 g/ha, Postemergence): 4
Plant response rating, Wheat [13, 15]: 4
Wild oats plant response rating ([14]; Rate 62 g/ha, Postemergence): 6
Wild oats plant response rating ([14]; Rate 62 g/ha, Preemergence): 4
Wild oats plant response rating ([14]; Rate 125 g/ha, Postemergence): 6
Plant response rating, Wild oats ([14]; Rate 125 g/ha, Preemergence): 8
Plant response rating, Wild oats ([14]; Rate 250 g/ha, Postemergence): 6
Plant response rating, Wild oats [14, 15]: 9

Source: US6525001B1, “Substituted pyrimidine and pyridine herbicides” (Mid-American Commercialization Corporation, priority 1997, dated 2003)
